Assay results from US10590128B2, “6,7,8,9-tetrahydro-5H-pyrido[2,3-d]azepine dopamine D3 ligands” (Pfizer Inc., priority 2016, dated 2020).
pKi: −log10 of the molar value.

What was measured:
[1] = biological target: human dopamine D2 receptor (hD2R) (Homo sapiens, UniProt P14416); experiment: Human D2 receptor binding assay ([^3H]-Spiperone); conditions: CHO cells expressing hD2R, geometric mean of 2-5 determinations unless marked b (single determination)
Description: (§1) Human D2 Receptor and Human D3 Receptor Binding Assays:
(§2) These determined ligand and tissue concentrations were utilized in time course studies to determine linearity and equilibrium conditions for binding. […] The hD2R assay buffer contains 50 mM Tris (pH 7.4 @ 37° C.), 100 mM NaCl and 1 mM MgCl2. The hD3R assay buffer consists of 50 mM Tris (pH 7.4 at 37° C.), 120 mM NaCl, 5 mM MgCl2, 5 mM KCl and 2 mM CaCl2. Competitive binding experiments were initiated by the addition of 200 μL of the respective cell homogenate to 96-well plates containing […] test drugs (10 concentrations using ½ log dilutions) and 50 μL of ^3H-radioligand for a final volume of 250 μL. Non-specific binding was determined by radioligand binding in the presence of a saturating concentration of Haldol (10 μM). After the 20 minute incubation at 37° C., assay samples were rapidly filtered through Unifilter-96 GF/B PEI-coated filter plates and rinsed with ice-cold 50 mM Tris buffer (pH 7.4 at 4° C.). […] The IC50 value (concentration at which 50% inhibition of specific binding occurs) was calculated by linear regression of the concentration-response data in ActivityBase. Ki values were then calculated according to the Cheng-Prusoff equation:
(§3) [formula] where [L]=concentration of free radioligand and Kd=dissociation constant of radioligand for D3 receptor or D2 receptor.

[2] = biological target: human dopamine D3 receptor (hD3R) (Homo sapiens, UniProt P35462); experiment: Human D3 receptor binding assay ([^3H]-7-OH-DPAT); conditions: CHO cells expressing hD3R, geometric mean of 2-5 determinations unless marked b (single determination), read-out: hD3 in CHO cells Ki
Chain of human dopamine D3 receptor (hD3R) (P35462 whole entry): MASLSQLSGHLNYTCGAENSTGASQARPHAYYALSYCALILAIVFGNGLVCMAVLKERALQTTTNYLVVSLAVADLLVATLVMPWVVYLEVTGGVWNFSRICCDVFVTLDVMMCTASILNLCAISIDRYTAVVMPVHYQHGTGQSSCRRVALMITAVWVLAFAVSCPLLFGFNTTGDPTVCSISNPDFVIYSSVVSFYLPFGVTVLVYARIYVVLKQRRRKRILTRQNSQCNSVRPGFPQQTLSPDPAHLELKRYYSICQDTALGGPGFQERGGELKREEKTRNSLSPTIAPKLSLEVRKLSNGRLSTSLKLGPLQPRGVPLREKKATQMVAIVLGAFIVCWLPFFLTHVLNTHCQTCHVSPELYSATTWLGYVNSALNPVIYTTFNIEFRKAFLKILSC
Description: as §1, §2, §3

Chain of human dopamine D2 receptor (hD2R) (P14416 whole entry): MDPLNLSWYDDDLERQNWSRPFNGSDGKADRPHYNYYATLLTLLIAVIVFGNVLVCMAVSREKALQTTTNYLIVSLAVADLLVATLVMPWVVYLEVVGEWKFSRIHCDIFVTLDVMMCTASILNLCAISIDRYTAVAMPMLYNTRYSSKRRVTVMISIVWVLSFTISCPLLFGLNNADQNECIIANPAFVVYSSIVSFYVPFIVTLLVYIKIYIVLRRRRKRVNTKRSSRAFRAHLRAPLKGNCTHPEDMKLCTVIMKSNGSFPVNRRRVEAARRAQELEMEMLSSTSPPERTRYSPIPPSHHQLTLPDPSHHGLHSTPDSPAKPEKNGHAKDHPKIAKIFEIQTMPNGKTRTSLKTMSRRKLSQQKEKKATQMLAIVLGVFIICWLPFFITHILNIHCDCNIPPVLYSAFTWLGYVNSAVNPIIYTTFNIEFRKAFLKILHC

Row | Structure (SMILES) | pKi [1] | pKi [2]
1 | COc1nc2c(cc1NS(=O)(=O)c1ccc(C3CCCCC3)cc1)CCN(C)CC2 [Example 45, 4-cyclohexyl-N-(2-methoxy-7-methyl-6,7,8,9-tetrahydro-5H-pyrido[2,3-d]azepin-3-yl)benzenesulfonamide] | 8.49 | 9.49
2 | COc1nc2c(cc1NS(=O)(=O)c1ccc(OC3CCCC3)cc1)CCN(C)CC2 [Example 46, 4-(cyclopentyloxy)-N-(2-methoxy-7-methyl-6,7,8,9-tetrahydro-5H-pyrido[2,3-d]azepin-3-yl)benzenesulfonamide] | 8.49 | 9.32
3 | COc1nc2c(cc1NS(=O)(=O)c1ccc(C(F)(F)C3CCCC3)nc1)CCN(C)CC2 [Example 47, 6-[cyclopentyl(difluoro)methyl]-N-(2-methoxy-7-methyl-6,7,8,9-tetrahydro-5H-pyrido[2,3-d]azepin-3-yl)pyridine-3-sulfonamide] | 6.75 | 8.63
4 | COc1nc2c(cc1NS(=O)(=O)c1ccc(C(C)C)cc1)CCN(C)CC2 [Example 54, N-(2-methoxy-7-methyl-6,7,8,9-tetrahydro-5H-pyrido[2,3-d]azepin-3-yl)-4-(propan-2-yl)benzenesulfonamide] | 7.84 | 9.42
5 | COc1nc2c(cc1NS(=O)(=O)c1ccc(C3(C(F)(F)F)CC3)cc1)CCN(C)CC2 [Example 55, N-(2-methoxy-7-methyl-6,7,8,9-tetrahydro-5H-pyrido[2,3-d]azepin-3-yl)-4-[1-(trifluoromethyl)cyclopropyl]benzenesulfonamide] | 7.54 | 9.28
6 | CCN1CCc2nc(OC)c(NS(=O)(=O)c3ccc(C(C)C)cc3)cc2C(C)C1 (stereo not shown) [Example 56, N-(7-ethyl-2-methoxy-5-methyl-6,7,8,9-tetrahydro-5H-pyrido[2,3-d]azepin-3-yl)-4-(propan-2-yl)benzenesulfonamide] | 6.79 | 8.67
7 | CCN1CCc2cc(NS(=O)(=O)c3ccc(C4CCOCC4)cc3)c(OC)nc2CC1 [Example 57, N-(7-ethyl-2-methoxy-6,7,8,9-tetrahydro-5H-pyrido[2,3-d]azepin-3-yl)-4-(tetrahydro-2H-pyran-4-yl)benzenesulfonamide] | 6.64 | 8.50
8 | CCN1CCc2cc(NS(=O)(=O)c3ccc(Oc4ccccc4)nc3)c(OC)nc2CC1 [Example 60, N-(7-ethyl-2-methoxy-6,7,8,9-tetrahydro-5H-pyrido[2,3-d]azepin-3-yl)-6-phenoxypyridine-3-sulfonamide] | 6.40 | 8.53
9 | CCN1CCc2cc(NS(=O)(=O)c3ccc(OC4CCCC4)cc3)c(OC)nc2CC1 [Example 63, 4-(cyclopentyloxy)-N-(7-ethyl-2-methoxy-6,7,8,9-tetrahydro-5H-pyrido[2,3-d]azepin-3-yl)benzenesulfonamide] | 7.94 | 9.49
10 | CCN1CCc2cc(NS(=O)(=O)c3ccc4c(c3)CCCO4)c(OC(C)C)nc2CC1 [Example 66, N-[7-ethyl-2-(propan-2-yloxy)-6,7,8,9-tetrahydro-5H-pyrido[2,3-d]azepin-3-yl]-3,4-dihydro-2H-chromene-6-sulfonamide] | 5.84 | 8.06
11 | CCN1CCc2cc(NS(=O)(=O)c3ccc(C4(F)CCOCC4)cc3)c(OC)nc2CC1 [Example 75, N-(7-ethyl-2-methoxy-6,7,8,9-tetrahydro-5H-pyrido[2,3-d]azepin-3-yl)-4-(4-fluorotetrahydro-2H-pyran-4-yl)benzenesulfonamide] | 6.58 | 8.49
12 | COc1nc2c(cc1NS(=O)(=O)c1ccc([C@H]3C[C@H](OC)C3)cc1)CCN(C)CC2 [Example 76, 4-(trans-3-methoxycyclobutyl)-N-(2-methoxy-7-methyl-6,7,8,9-tetrahydro-5H-pyrido[2,3-d]azepin-3-yl)benzenesulfonamide] | 6.69 | 8.89

Now from value to compound:

Row | pKi [1] | pKi [2] | Structure (SMILES)
13 | 6.03 | 8.14 | CCO[C@H]1C[C@@](F)(c2ccc(S(=O)(=O)Nc3cc4c(nc3OC)CCN(CC)CC4)cc2)C1 [Example 48, 4-(trans-3-ethoxy-1-fluorocyclobutyl)-N-(7-ethyl-2-methoxy-6,7,8,9-tetrahydro-5H-pyrido[2,3-d]azepin-3-yl)benzenesulfonamide]
14 | 6.99 | 9.06 | CCCN1CCc2cc(NS(=O)(=O)c3ccc(C(C)C)cc3)c(OC)nc2CC1 [Example 49, N-(2-methoxy-7-propyl-6,7,8,9-tetrahydro-5H-pyrido[2,3-d]azepin-3-yl)-4-(propan-2-yl)benzenesulfonamide]
15 | 6.47 | 8.49 | CCCN1CCc2cc(NS(=O)(=O)c3ccc(OCC)cc3)c(OC)nc2CC1 [Example 50, 4-ethoxy-N-(2-methoxy-7-propyl-6,7,8,9-tetrahydro-5H-pyrido[2,3-d]azepin-3-yl)benzenesulfonamide]
16 | 6.98 | 8.95 | CCN1CCc2cc(NS(=O)(=O)c3ccc(C(C)C)cc3)c(OC)nc2CC1 [Example 51, N-(7-ethyl-2-methoxy-6,7,8,9-tetrahydro-5H-pyrido[2,3-d]azepin-3-yl)-4-(propan-2-yl)benzenesulfonamide]
17 | 6.36 | 8.59 | CCOc1ccc(S(=O)(=O)Nc2cc3c(nc2OC)CCN(CC)CC3)cc1 [Example 52, 4-ethoxy-N-(7-ethyl-2-methoxy-6,7,8,9-tetrahydro-5H-pyrido[2,3-d]azepin-3-yl)benzenesulfonamide]
18 | 6.50 | 8.56 | CCN1CCc2cc(NS(=O)(=O)c3ccc(C)cc3)c(OC)nc2CC1 [Example 53, N-(7-ethyl-2-methoxy-6,7,8,9-tetrahydro-5H-pyrido[2,3-d]azepin-3-yl)-4-methylbenzenesulfonamide]
19 | 6.12 | 8.36 | CCN1CCc2cc(NS(=O)(=O)c3ccc4c(c3)CCCO4)c(OC)nc2CC1 [Example 58, N-(7-ethyl-2-methoxy-6,7,8,9-tetrahydro-5H-pyrido[2,3-d]azepin-3-yl)-3,4-dihydro-2H-chromene-6-sulfonamide]
20 | 5.64 | 7.94 | CCN1CCc2cc(NS(=O)(=O)c3ccc(OC(F)F)cc3)c(OC)nc2CC1 [Example 59, 4-(difluoromethoxy)-N-(7-ethyl-2-methoxy-6,7,8,9-tetrahydro-5H-pyrido[2,3-d]azepin-3-yl)benzenesulfonamide]
21 | 6.41 | 8.63 | CCN1CCc2cc(NS(=O)(=O)c3ccc(C)c(C)c3)c(OC)nc2CC1 [Example 61, N-(7-ethyl-2-methoxy-6,7,8,9-tetrahydro-5H-pyrido[2,3-d]azepin-3-yl)-3,4-dimethylbenzenesulfonamide]
22 | 7.28 | 9.40 | CCCc1ccc(S(=O)(=O)Nc2cc3c(nc2OC)CCN(CC)CC3)cc1 [Example 62, N-(7-ethyl-2-methoxy-6,7,8,9-tetrahydro-5H-pyrido[2,3-d]azepin-3-yl)-4-propylbenzenesulfonamide]
23 | 7.67 | 9.32 | CCN1CCc2cc(NS(=O)(=O)c3ccc4c(c3)CCC(C)(C)O4)c(OC)nc2CC1 [Example 64, N-(7-ethyl-2-methoxy-6,7,8,9-tetrahydro-5H-pyrido[2,3-d]azepin-3-yl)-2,2-dimethyl-3,4-dihydro-2H-chromene-6-sulfonamide]
24 | 6.56 | 8.81 | CCN1CCc2cc(NS(=O)(=O)c3ccc(C)cc3C)c(OC)nc2CC1 [Example 65, N-(7-ethyl-2-methoxy-6,7,8,9-tetrahydro-5H-pyrido[2,3-d]azepin-3-yl)-2,4-dimethylbenzenesulfonamide]
25 | 6.18 | 8.40 | CCN1CCc2cc(NS(=O)(=O)c3ccc4c(c3)CC(C)O4)c(OC)nc2CC1 (stereo not shown) [Example 67, N-(7-ethyl-2-methoxy-6,7,8,9-tetrahydro-5H-pyrido[2,3-d]azepin-3-yl)-2-methyl-2,3-dihydro-1-benzofuran-5-sulfonamide]
26 | 6.47 | 8.90 | CCN1CCc2cc(NS(=O)(=O)c3ccc([C@H]4C[C@H](OC)C4)cc3)c(OC)nc2CC1 [Example 68, N-(7-ethyl-2-methoxy-6,7,8,9-tetrahydro-5H-pyrido[2,3-d]azepin-3-yl)-4-(trans-3-methoxycyclobutyl)benzenesulfonamide]
27 | 6.41 | 8.32 | CCN1CCc2cc(NS(=O)(=O)c3ccc(C4(C)CCOCC4)cc3)c(OC)nc2CC1 [Example 69, N-(7-ethyl-2-methoxy-6,7,8,9-tetrahydro-5H-pyrido[2,3-d]azepin-3-yl)-4-(4-methyltetrahydro-2H-pyran-4-yl)benzenesulfonamide]
28 | 6.12 | 8.32 | CCN1CCc2cc(NS(=O)(=O)c3ccc(C4CCOC4)cc3)c(OC)nc2CC1 (stereo not shown) [Example 71, N-(7-ethyl-2-methoxy-6,7,8,9-tetrahydro-5H-pyrido[2,3-d]azepin-3-yl)-4-(tetrahydrofuran-3-yl)benzenesulfonamide]
29 | 6.38 | 8.58 | CCN1CCc2cc(NS(=O)(=O)c3ccc([C@H]4C[C@@H](OC)C4)cc3)c(OC)nc2CC1 [Example 72, N-(7-ethyl-2-methoxy-6,7,8,9-tetrahydro-5H-pyrido[2,3-d]azepin-3-yl)-4-(cis-3-methoxycyclobutyl)benzenesulfonamide]
